# From patent publication US20250179103A1, “6-OXODECAHYDROPYRROLO[1,2-A][1,5]DIAZOCINE AND 6-OXODECAHYDRO-4H-PYRROLO[2,1-D][1,5]THIAZOCINE DERIVATIVES AS STAT3 AND STAT6 MODULATORS FOR THE TREATMENT OF CANCER AND INFLAMMATORY CONDITIONS” (Recludix Pharma, Inc., priority 2022, published 2025)
# Key:
# [1] = target: T1, Recombinant STAT3 protein (STAT3(G127-I722)) (Homo sapiens, UniProt P40763); test: STAT3 Fluorescence Polarization (FP) Assay; assay type: binding; conditions: STAT3(G127-I722) 25 nM, probe 5-FAM-GpYLPQTV-NH2 2 nM, 45-minute incubation
# T1 construct: Recombinant STAT3 protein (STAT3(G127-I722))
# T1 sequence (P40763 127-722): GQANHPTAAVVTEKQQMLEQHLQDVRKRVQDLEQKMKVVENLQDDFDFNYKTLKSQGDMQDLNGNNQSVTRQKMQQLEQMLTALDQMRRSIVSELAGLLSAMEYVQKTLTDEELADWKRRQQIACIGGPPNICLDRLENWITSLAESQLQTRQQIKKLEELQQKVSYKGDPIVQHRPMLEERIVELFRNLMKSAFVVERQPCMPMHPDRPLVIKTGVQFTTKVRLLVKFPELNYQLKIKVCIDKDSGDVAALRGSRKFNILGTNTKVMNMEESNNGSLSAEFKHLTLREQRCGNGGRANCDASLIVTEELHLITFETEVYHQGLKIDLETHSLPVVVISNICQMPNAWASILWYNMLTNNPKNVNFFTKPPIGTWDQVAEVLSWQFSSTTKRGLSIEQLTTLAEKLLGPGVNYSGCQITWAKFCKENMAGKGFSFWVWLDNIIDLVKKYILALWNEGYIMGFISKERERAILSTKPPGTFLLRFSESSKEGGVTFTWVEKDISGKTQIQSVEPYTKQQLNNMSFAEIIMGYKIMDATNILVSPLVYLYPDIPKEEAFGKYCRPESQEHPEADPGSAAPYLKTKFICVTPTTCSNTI
# Summary of the method: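 Fluorescence polarization after a 45-min room-temperature incubation measured compound displacement of a 2 nM fluorescein-labelled phosphotyrosine peptide (5-FAM-GpYLPQTV-NH2) from 25 nM recombinant STAT3(G127-I722). Buffer was 10 mM HEPES pH 7.4 with 1% DMSO final. IC50s were fitted by nonlinear regression of mP against log concentration.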
# [2] = target: T2, Recombinant STAT6 protein (STAT6(W123-T658)) (Homo sapiens, UniProt P42226); test: STAT6 Fluorescence Polarization (FP) Assay; assay type: binding; conditions: STAT6(W123-T658) 250 nM, probe 5-FAM-ApYKPFQDLI-NH2 2 nM, 45-minute incubation
# T2 construct: Recombinant STAT6 protein (STAT6(W123-T658))
# T2 sequence (P42226 123-658): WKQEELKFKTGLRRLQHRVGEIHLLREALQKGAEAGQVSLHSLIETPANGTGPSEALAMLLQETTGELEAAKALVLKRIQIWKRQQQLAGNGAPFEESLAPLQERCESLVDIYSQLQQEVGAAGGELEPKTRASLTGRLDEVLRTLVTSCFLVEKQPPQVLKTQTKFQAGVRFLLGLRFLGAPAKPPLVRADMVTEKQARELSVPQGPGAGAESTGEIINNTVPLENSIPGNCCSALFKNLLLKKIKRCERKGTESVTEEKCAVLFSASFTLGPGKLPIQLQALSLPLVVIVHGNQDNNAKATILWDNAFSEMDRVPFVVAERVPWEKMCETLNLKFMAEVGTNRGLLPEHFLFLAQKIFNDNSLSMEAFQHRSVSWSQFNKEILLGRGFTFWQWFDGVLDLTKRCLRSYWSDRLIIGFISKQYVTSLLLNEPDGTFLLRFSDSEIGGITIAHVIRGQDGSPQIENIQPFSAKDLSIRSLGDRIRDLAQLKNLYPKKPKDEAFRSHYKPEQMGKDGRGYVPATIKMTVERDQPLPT
# Summary of the method: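 Displacement of a fluorescent phosphotyrosine peptide (5-FAM-ApYKPFQDLI-NH2, 2 nM) from STAT6(W123-T658) (250 nM), 1% DMSO, pH 7.4 HEPES buffer. After 45 min at room temperature, polarization (mP) was plotted versus log compound concentration and fitted by nonlinear regression to give IC50.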
SMILES,IC50 [1] [µM],IC50 [2] [µM]
"CC(=O)N1CC[C@H]2CC[C@@H](C(=O)N(C)c3ccccc3)N2C(=O)[C@@H](NC(=O)c2ccc3ccc(C(F)P(=O)(O)O)cc3c2)C1 (stereo partly drawn) [Compound 14, ((7-(((5S,8S,10aR)-3-acetyl-8-(methyl(phenyl)carbamoyl)-6-oxodecahydropyrrolo[1,2-a][1,5]diazocin-5-yl)carbamoyl)naphthalen-2-yl)fluoromethyl)phosphonic acid]",> 10,0.3 to 3
"CC(=O)N1CC[C@H]2CC[C@@H](C(=O)N(C)c3ccccc3)N2C(=O)[C@@H](NC(=O)c2ccc3ccc(CP(=O)(O)O)cc3c2)C1 [Compound 15, ((7-(((5S,8S,10aR)-3-acetyl-8-(methyl(phenyl)carbamoyl)-6-oxodecahydropyrrolo[1,2-a][1,5]diazocin-5-yl)carbamoyl)naphthalen-2-yl)methyl)phosphonic acid]",> 10,3 to 30
"CC(=O)N1CC[C@H]2CC[C@@H](C(=O)N(C)c3ccccc3)N2C(=O)[C@@H](NC(=O)c2cc3cc(C(C#N)P(=O)(O)O)ccc3s2)C1 (stereo partly drawn) [Compound 16, ((2-(((5S,8S,10aR)-3-acetyl-8-(methyl(phenyl)carbamoyl)-6-oxodecahydropyrrolo[1,2-a][1,5]diazocin-5-yl)carbamoyl)benzo[b]thiophen-5-yl)(cyano)methyl)phosphonic acid]",> 10,> 30
"CC(=O)N1CC[C@H]2CC[C@@H](C(=O)N(C)c3ccccc3)N2C(=O)[C@@H](NC(=O)c2cc3cc(C(C)(F)P(=O)(O)O)ccc3s2)C1 (stereo partly drawn) [Compound 18, (1-(2-(((5S,8S,10aR)-3-acetyl-8-(methyl(phenyl)carbamoyl)-6-oxodecahydropyrrolo[1,2-a][1,5]diazocin-5-yl)carbamoyl)benzo[b]thiophen-5-yl)-1-fluoroethyl)phosphonic acid]",> 10,3 to 30
"CC(=O)N1CC[C@H]2CC[C@@H](C(=O)N(C)c3ccccc3)N2C(=O)[C@@H](NC(=O)c2cc3cc(C(CO)P(=O)(O)O)ccc3s2)C1 (stereo partly drawn) [Compound 19, (1-(2-(((5S,8S,10aR)-3-acetyl-8-(methyl(phenyl)carbamoyl)-6-oxodecahydropyrrolo[1,2-a][1,5]diazocin-5-yl)carbamoyl)benzo[b]thiophen-5-yl)-2-hydroxyethyl)phosphonic acid]",> 10,> 30
"CC(=O)N1CC[C@H]2CC[C@@H](C(=O)N(C)c3ccccc3)N2C(=O)[C@@H](NC(=O)c2cc3cc(C(C)P(=O)(O)O)ccc3s2)C1 (stereo partly drawn) [Compound 20, (1-(2-(((5S,8S,10aR)-3-acetyl-8-(methyl(phenyl)carbamoyl)-6-oxodecahydropyrrolo[1,2-a][1,5]diazocin-5-yl)carbamoyl)benzo[b]thiophen-5-yl)ethyl)phosphonic acid]",> 10,> 30
"CC(=O)N1CC[C@H]2CC[C@@H](C(=O)N(C)c3ccccc3)N2C(=O)[C@@H](NC(=O)c2cc3cc(C(C)(C)P(=O)(O)O)ccc3s2)C1 [Compound 21, (2-(2-(((5S,8S,10aR)-3-acetyl-8-(methyl(phenyl)carbamoyl)-6-oxodecahydropyrrolo[1,2-a][1,5]diazocin-5-yl)carbamoyl)benzo[b]thiophen-5-yl)propan-2-yl)phospnoic aicd]",> 10,> 30

# The remaining lines, values ahead:
IC50 [1] [µM],IC50 [2] [µM],SMILES
1 to 10,0.3 to 3,"CCN1CC[C@H]2CC[C@@H](C(=O)N3C[C@@H](C#N)[C@H](c4ccccc4)C3)N2C(=O)[C@@H](NC(=O)c2ccc3ccc(C(F)(F)P(=O)(O)O)cc3c2)C1 (single isomer, unassigned) [Compound 243, ((7-(((5S,8S,10aR)-8-((3S,4R or 3R,4S)-3-cyano-4-phenylpyrrolidine-1-carbonyl)-3-ethyl-6-oxodecahydropyrrolo[1,2-a][1,5]diazocin-5-yl)carbamoyl)naphthalen-2-yl)difluoromethyl)phosphonic acid]"
0.1 to 1,0.3 to 3,"NC(=O)[C@@H]1CN(C(=O)[C@@H]2CC[C@@H]3CCN(CC(F)F)C[C@H](NC(=O)c4cc5cc(C(F)(F)P(=O)(O)O)ccc5s4)C(=O)N32)C[C@H]1c1ccccc1 (single isomer, unassigned) [Compound 245, ((2-(((5S,8S,10aR)-8-((3S,4R or 3R,4S)-3-carbamoyl-4-phenylpyrrolidine-1-carbonyl)-3-(2,2-difluoroethyl)-6-oxodecahydropyrrolo[1,2-a][1,5]diazocin-5-yl)carbamoyl)benzo[b]thiophen-5-yl)difluoromethyl)phosphonic acid]"
0.1 to 1,≤ 0.3,"COC(=O)[C@@H]1CN(C(=O)[C@@H]2CC[C@@H]3CCN(CC(F)F)C[C@H](NC(=O)c4cc5cc(C(F)(F)P(=O)(O)O)ccc5s4)C(=O)N32)C[C@H]1c1ccccc1 (single isomer, unassigned) [Compound 247, ((2-(((5S,8S,10aR)-3-(2,2-difluoroethyl)-8-((3S,4R or 3R,4S)-3-(methoxycarbonyl)-4-phenylpyrrolidine-1-carbonyl)-6-oxodecahydropyrrolo[1,2-a][1,5]diazocin-5-yl)carbamoyl)benzo[b]thiophen-5-yl)difluoromethyl)phosphonic acid]"
1 to 10,≤ 0.3,"N#C[C@@H]1CN(C(=O)[C@@H]2CC[C@@H]3CCN(CC(F)F)C[C@H](NC(=O)c4ccc5ccc(C(F)(F)P(=O)(O)O)cc5c4)C(=O)N32)C[C@H]1c1ccccc1 (single isomer, unassigned) [Compound 248, ((7-(((5S,8S,10aR)-8-((3S,4R or 3R,4S)-3-cyano-4-phenylpyrrolidine-1-carbonyl)-3-(2,2-difluoroethyl)-6-oxodecahydropyrrolo[1,2-a][1,5]diazocin-5-yl)carbamoyl)naphthalen-2-yl)difluoromethyl)phosphonic acid]"
1 to 10,≤ 0.3,"Cc1ccc2onc(C(=O)N3CC[C@H]4CC[C@@H](C(=O)N5C[C@@H](C#N)[C@H](c6ccccc6)C5)N4C(=O)[C@@H](NC(=O)c4ccc5ccc(C(F)(F)P(=O)(O)O)cc5c4)C3)c2c1 (single isomer, unassigned) [Compound 375]"
> 10,0.3 to 3,"CC(=O)N1CC[C@H]2CC[C@@H](C(=O)N(C)c3ccc(C(C)(C)C#N)cc3)N2C(=O)[C@@H](NC(=O)c2cc3cc(C(F)(F)P(=O)(O)O)ccc3s2)C1 [Compound 2, ((2-(((5S,8S,10aR)-3-acetyl-8-((4-(2-cyanopropan-2-yl)phenyl)(methyl)carbamoyl)-6-oxodecahydropyrrolo[1,2-a][1,5]diazocin-5-yl)carbamoyl)benzo[b]thiophen-5-yl)difluoromethyl)phosphonic Acid]"
1 to 10,0.3 to 3,"CN(C(=O)[C@@H]1CC[C@@H]2CCN(C(=O)Cc3ccccc3)C[C@H](NC(=O)c3cc4cc(C(F)(F)P(=O)(O)O)ccc4[nH]3)C(=O)N21)c1ccccc1 [Compound 3, (difluoro(2-(((5S,8S,10aR)-8-(methyl(phenyl)carbamoyl)-6-oxo-3-(2-phenylacetyl)decahydropyrrolo[1,2-a][1,5]diazocin-5-yl)carbamoyl)-1H-indol-5-yl)methyl)phosphonic acid]"
1 to 10,0.3 to 3,"CC(=O)N1CC[C@H]2CC[C@@H](C(=O)N[C@H]3CN(S(C)(=O)=O)C[C@@H]3O)N2C(=O)[C@@H](NC(=O)c2cc3cc(C(F)(F)P(=O)(O)O)ccc3s2)C1 [Compound 6, ((2-(((5S,8S,10aR)-3-acetyl-8-(((3S,4S)-4-hydroxy-1-(methylsulfonyl)pyrrolidin-3-yl)carbamoyl)-6-oxodecahydropyrrolo[1,2-a][1,5]diazocin-5-yl)carbamoyl)benzo[b]thiophen-5-yl)difluoromethyl)phosphonic Acid]"
0.1 to 1,0.3 to 3,"CC(=O)N1CC[C@H]2CC[C@@H](C(=O)N3CCC4C3CN4c3ccccc3)N2C(=O)[C@@H](NC(=O)c2cc3cc(C(F)(F)P(=O)(O)O)ccc3s2)C1 (stereo partly drawn) [Compound 11, ((2-(((5S,8S,10aR)-3-acetyl-6-oxo-8-(6-phenyl-2,6-diazabicyclo[3.2.0]heptane-2-carbonyl)decahydropyrrolo[1,2-a][1,5]diazocin-5-yl)carbamoyl)benzo[b]thiophen-5-yl)difluoromethyl)phosphonic acid]"
1 to 10,0.3 to 3,"CC(=O)N1CC[C@H]2CC[C@@H](C(=O)Nc3ccc(-c4ccccc4)cc3)N2C(=O)[C@@H](NC(=O)c2cc3cc(C(F)P(=O)(O)O)ccc3s2)C1 (stereo partly drawn) [Compound 17, ((2-(((5S,8S,10aR)-8-([1,1′-biphenyl]-4-ylcarbamoyl)-3-acetyl-6-oxodecahydropyrrolo[1,2-a][1,5]diazocin-5-yl)carbamoyl)benzo[b]thiophen-5-yl)fluoromethyl)phosphonic acid]"
